# Measurements: patent publication US6518278B1, “Carcinostatic substance for compatible administration, process of administrating same and process of rapidly inspecting same” (Debio Pharm S.A., priority 1994, dated 2003)
# “Also recorded” adds a separate entry of the source.
# Legend:
# [1] = test system: human leutecyte strain cell (RPMI-8402); test: Extinction effect of compatible administration of l-OHP and a compatible agent on tumor cells (compatible efficiency OE); format: cell-based; settings: for Compatible Effects of l-OHP and Compatible Agent, Simultaneous Administration: both added day 1
# Outline: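 RPMI-8402 cells (10^6/ml, 15% fetal bovine serum) got l-OHP (5 or 1 μg/ml) with a partner agent at high or low dose (e.g. cisplatin 1 or 0.5, 5-FU 10 or 5 μg/ml; irinotecan fixed at 10 μg/ml) on the same day or staggered days 1–4 in either order. Cell kill was corrected for the untreated control. A combination index of 85–115% was scored additive, >115% synergistic.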
# [2] = test system: K 562 parent cells (human bone marrow leukemia); test: Extinction rate, OR 36-3 and cisplatin, K 562 parent cells; format: cell-based; settings: 2 μg/ml of the cisplatin, single
# Method: (§1) The extinction rates were measured in accordance with the same procedures of Example 2 except that K 562 parent cells (human bone marrow leukemia) and its cisplatin resistance cells (K652/CDDP) were employed in place of the human leutecyte strain cell employed in Comparative Example 1 and Example 2, and cisplatin was employed in place of the vincristin.
# [3] = test system: cisplatin resistance cells (K652/CDDP); test: Extinction rate, OR 36-3 and cisplatin, cisplatin resistance cells; format: cell-based, human; settings: 5 μg/ml of the cisplatin, single; resistance cells versus K 562 parent cells
# Method: as §1
# living cells [4] = test: Fluorescence dye bonded to living cells: does the cell stay alive; format: cell-based; settings: dye bonded to living cells
# Description: As the said fluorescence dye, the above DAPI can be employed. Although the DAPI itself is known, the use for the observation of the cell division while keeping the cells alive is unknown. The present inventors have investigated such fluorescence dye as Hoechst 33258, acridine orange and acridine yellow other than the DAPI.
# living cells [5] = settings: dye bonded to the cell; inventor's earlier meeting article (1990); cited from earlier work
# [6] = larger dosage of compatible agent (μg/ml: cisplatin 1, 5-FU 10, irinotecane 10, adriamycin 0.05, vincristin 0.05, vindecin 0.05, etoposide 1, bleomycin 10, mitoxantrone 0.1, mitomycine 1), l-OHP 1 μg/ml (5 μg/ml with irinotecane) added day 1
# [7] = larger dosage of compatible agent added day 1 (μg/ml: cisplatin 1, 5-FU 10, irinotecane 10, adriamycin 0.05, vincristin 0.05, vindecin 0.05, etoposide 1, bleomycin 10, mitoxantrone 0.1, mitomycine 1), l-OHP 1 μg/ml (5 μg/ml with irinotecane)
# [8] = smaller dosage of compatible agent (μg/ml: cisplatin 0.5, 5-FU 5, irinotecane 10, adriamycin 0.01, vincristin 0.01, vindecin 0.01, etoposide 0.5, bleomycin 1, mitoxantrone 0.05, mitomycine 0.5), l-OHP 1 μg/ml added day 1
# [9] = smaller dosage of compatible agent added day 1 (μg/ml: cisplatin 0.5, 5-FU 5, irinotecane 10, adriamycin 0.01, vincristin 0.01, vindecin 0.01, etoposide 0.5, bleomycin 1, mitoxantrone 0.05, mitomycine 0.5), l-OHP 1 μg/ml
smiles,measurement,setting,value
N.N.[Cl][Pt][Cl] [cisplatin],"compatible administration effect with l-OHP, summary in words",[1]; compatible administration with l-OHP,the additive effect or the synergistic effect regardless of the administration method and the dosage in almost all the cases; also recorded: synergistic effects can be obtained in all the cases when the cisplatin and the l-OHP are simultaneously administrated and the l-OHP is administrated before the cisplatin; also recorded: effect about twice the expected value is obtained in most cases when the l-OHP administration is preceded and the cisplatin is added later
same,"Compatible Effects of l-OHP and Compatible Agent, Time Lag Administration, Addition Administration of Compatible Agent day 2",[1]; [6],• (•: Synergistic Effect)
same,"Compatible Effects of l-OHP and Compatible Agent, Time Lag Administration, Addition Administration of Compatible Agent day 3",[1]; [6],• (•: Synergistic Effect)
same,"Compatible Effects of l-OHP and Compatible Agent, Time Lag Administration, Addition Administration of Compatible Agent day 4",[1]; [6],• (•: Synergistic Effect)
same,"Compatible Effects of l-OHP and Compatible Agent, Simultaneous Administration","[1]; larger dosage of compatible agent (μg/ml: cisplatin 1, 5-FU 10, irinotecane 10, adriamycin 0.05, vincristin 0.05, vindecin 0.05, etoposide 1, bleomycin 10, mitoxantrone 0.1, mitomycine 1), l-OHP 1 μg/ml (5 μg/ml with irinotecane)",• (•: Synergistic Effect)
same,"Compatible Effects of l-OHP and Compatible Agent, Time Lag Administration, Addition Administration of l-OHP day 2",[1]; [7],• (•: Synergistic Effect)
same,"Compatible Effects of l-OHP and Compatible Agent, Time Lag Administration, Addition Administration of l-OHP day 3",[1]; [7],◯ (◯: Additive Effect)
same,"Compatible Effects of l-OHP and Compatible Agent, Time Lag Administration, Addition Administration of l-OHP day 4",[1]; [7],◯ (◯: Additive Effect)
same,"Compatible Effects of l-OHP and Compatible Agent, Time Lag Administration, Addition Administration of Compatible Agent day 2",[1]; [8],• (•: Synergistic Effect)
same,"Compatible Effects of l-OHP and Compatible Agent, Time Lag Administration, Addition Administration of Compatible Agent day 3",[1]; [8],• (•: Synergistic Effect)
same,"Compatible Effects of l-OHP and Compatible Agent, Time Lag Administration, Addition Administration of Compatible Agent day 4",[1]; [8],• (•: Synergistic Effect)
same,"Compatible Effects of l-OHP and Compatible Agent, Simultaneous Administration","[1]; smaller dosage of compatible agent (μg/ml: cisplatin 0.5, 5-FU 5, irinotecane 10, adriamycin 0.01, vincristin 0.01, vindecin 0.01, etoposide 0.5, bleomycin 1, mitoxantrone 0.05, mitomycine 0.5), l-OHP 1 μg/ml",◯ (◯: Additive Effect)
same,"Compatible Effects of l-OHP and Compatible Agent, Time Lag Administration, Addition Administration of l-OHP day 2",[1]; [9],Δ (Δ: Below Additive Effect)
same,"Compatible Effects of l-OHP and Compatible Agent, Time Lag Administration, Addition Administration of l-OHP day 3",[1]; [9],Δ (Δ: Below Additive Effect)
same,"Compatible Effects of l-OHP and Compatible Agent, Time Lag Administration, Addition Administration of l-OHP day 4",[1]; [9],Δ (Δ: Below Additive Effect)
same,extinction rate of the parent cells relative to that of the resistance cells,[2],about twice
same,extinction rates against the parent cells and the resistance cells compared,[3],substantially the same as each other
CN1CCN(c2ccc3[nH]c(-c4ccc5[nH]c(-c6ccc(O)cc6)nc5c4)nc3c2)CC1 [Hoechst 33258],toxicity of fluorescence dye to the cell,living cells [4],toxicity is too strong to keep the cell alive
"Cl.Cl.N=C(N)c1ccc(-c2cc3ccc(C(=N)N)cc3[nH]2)cc1 [DAPI, 4′,6-diamidino-2-phenylindole•2HCl]",effect of fluorescence dye on living cells,living cells [5],without extinguishing the cells
